Test results: paper PMC6199744, “Development of Chemical Proteomics for the Folateome and Analysis of the Kinetoplastid Folateome” (ACS Infectious Diseases, 2018)
“And” between values parts separate entries of the source, which are not always exact repeats. Equal entries are not always repeated. Where two headings read alike, the source gives them in different places.

System: T. brucei lysate proteins
Assay type: binding, Trypanosoma brucei

For `NCCCNc1ccc(C(=O)NC(CCC(=O)O)C(=O)O)cc1` (stereo not shown) [compound 7], the “fold change vs vehicle control” value was 0.96 and 1.1 and 0.99, the fold change (protein CZB00000046.1 HA-UBIQUITIN, vehicle control = 1) was 0.74 and the fold change (protein RHS6A, vehicle control = 1) was 0.95. For the same compound, the “fold change vs vehicle control” value (protein TB09.160.3270 ATP-DEPENDENT DEAD BOX HELICASE, PUTATIVE, vehicle control = 1) was 0.89, the fold change (protein TB09.160.3710 PRO[…] NUCLEAR ANTIGEN (PCNA), PUTATIVE, vehicle control = 1) was 0.81 and the “fold change vs vehicle control” value (protein TB09.160.4200 60S ACIDIC RIBOSOMAL PROTEIN, PUTATIVE, vehicle control = 1) was 0.64. For the same compound, the “fold change vs vehicle control” value (protein TB09.160.4250 TR[…], vehicle control = 1) was 0.94, the “fold change vs vehicle control” value (protein TB09.211.2630 60S RIBOSOMAL PROTEIN L23, PUTATIVE, vehicle control = 1) was 0.98 and the fold change (protein TB09.211.4460 ADP-RI[…], PUTATIVE, vehicle control = 1) was 0.93. The fold change (protein TB09.211.4513 KIN[…] PROTEIN KMP-11, vehicle control = 1) was 0.88, the fold change (protein TB09.211.4760 METACASPASE 5, PUTATIVE, vehicle control = 1) was 1.1 and the “fold change vs vehicle control” value (protein TB09.244.2780 HY[…], CONSERVED, vehicle control = 1) was 1.54. The fold change (protein TB11.01.0450 PROTEIN PHOSPHATASE 1, PUTATIVE, vehicle control = 1) was 1, the “fold change vs vehicle control” value (protein TB11.01.2560 40S RIBOSOMAL PROTEIN SA, PUTATIVE, vehicle control = 1) was 0.82 and the “fold change vs vehicle control” value (protein TB11.01.3180 GUANINE NUCLEOTIDE-BINDING PROTEIN BETA SUBUNIT-LIKE PROTEIN, vehicle control = 1) was 0.93. The “fold change vs vehicle control” value (protein TB11.01.4370 HY[…], CONSERVED, vehicle control = 1) was 0.8, the fold change (protein TB11.01.5350 PROFILIN, vehicle control = 1) was 0.98 and the fold change (protein TB11.01.5860 T-COMPLEX PROTEIN 1, EPSILON SUBUNIT, PUTATIVE, vehicle control = 1) was 0.91. For the same compound, the fold change (protein TB11.01.8590 RAB-LIKE 5, SMALL G PROTEIN, vehicle control = 1) was 0.85, the fold change (protein TB11.01.8740 PROTEIN PHOSPHATASE 4, PUTATIVE, vehicle control = 1) was 0.77 and the “fold change vs vehicle control” value (protein TB11.02.2040 HY[…], CONSERVED (ALBA-Domain Protein), vehicle control = 1) was 0.84. For the same compound, the “fold change vs vehicle control” value (protein TB11.02.2420 HY[…], CONSERVED, vehicle control = 1) was 0.99, the “fold change vs vehicle control” value (protein TB11.02.2640 DYNEIN IN[…] IC78, PUTATIVE, vehicle control = 1) was 1.17 and the fold change (protein TB11.02.2960 MIT[…] PROTEIN, PUTATIVE, vehicle control = 1) was 0.88. For the same compound, the “fold change vs vehicle control” value (protein TB11.02.4170 40S RIBOSOMAL PROTEIN S5, PUTATIVE, vehicle control = 1) was 1.18, the fold change (protein TB11.02.4700 14-3-3 PROTEIN, vehicle control = 1) was 1 and the “fold change vs vehicle control” value (protein TB11.03.0250 C[…], vehicle control = 1) was 0.88. The “fold change vs vehicle control” value (protein TB11.03.0530 HY[…], CONSERVED (hy[…] SCD6.10), vehicle control = 1) was 1.76, the “fold change vs vehicle control” value (protein TB427TMP.01.0480 HY[…], CONSERVED, vehicle control = 1) was 1 and the fold change (protein TB427TMP.01.1470 60S RIBOSOMAL PROTEIN L10A, PUTATIVE, vehicle control = 1) was 0.84. For the same compound, the “fold change vs vehicle control” value (protein TB427TMP.01.4280 HY[…], CONSERVED, vehicle control = 1) was 1.2, the “fold change vs vehicle control” value (protein TB427TMP.01.5680 HY[…], CONSERVED, vehicle control = 1) was 0.98 and the “fold change vs vehicle control” value (protein TB427TMP.01.5690 DRBD4, vehicle control = 1) was 0.89. The fold change (protein TB427TMP.01.5960 MIT[…] PROTEIN, PUTATIVE, vehicle control = 1) was 0.93, the “fold change vs vehicle control” value (protein TB427TMP.01.6890 SMALL GTPASE, PUTATIVE, vehicle control = 1) was 1.8 and the fold change (protein TB427TMP.01.7490 HY[…], CONSERVED, vehicle control = 1) was 0.96. The “fold change vs vehicle control” value (protein TB427TMP.01.7530 HY[…], CONSERVED, vehicle control = 1) was 1, the fold change (protein TB427TMP.01.8390 HY[…], CONSERVED, vehicle control = 1) was 0.96 and the fold change (protein TB427TMP.01.8570 DYNEIN LIGHT IN[…] D1BLIC, PUTATIVE, vehicle control = 1) was 0.95. For the same compound, the fold change (protein TB427TMP.02.0030 DYNEIN HEAVY CHAIN, PUTATIVE, vehicle control = 1) was 0.88, the fold change (protein TB427TMP.02.0460 NUCLEOPORIN, vehicle control = 1) was 0.98 and the fold change (protein TB427TMP.02.0750 T-COMPLEX PROTEIN 1, ZETA SUBUNIT, PUTATIVE, vehicle control = 1) was 1. For the same compound, the fold change (protein TB427TMP.02.0760 DYNEIN HEAVY CHAIN, PUTATIVE, vehicle control = 1) was 0.91, the fold change (protein TB427TMP.02.1070 AMINOPEPTIDASE, PUTATIVE, vehicle control = 1) was 0.72 and the “fold change vs vehicle control” value (protein TB427TMP.02.1085 40S RIBOSOMAL PROTEIN S4, PUTATIVE, vehicle control = 1) was 0.78. For the same compound, the fold change (protein TB427TMP.02.1106 NUCLEOBASE/NUCLEOSIDE TRANSPORTER 8 1, vehicle control = 1) was 0.95, the “fold change vs vehicle control” value (protein TB427TMP.02.2070 LONG-CHAIN-FATTY-ACID-COA LIGASE, PUTATIVE, vehicle control = 1) was 0.95 and the “fold change vs vehicle control” value (protein TB427TMP.02.2890 HY[…], CONSERVED, vehicle control = 1) was 1.22. For the same compound, the “fold change vs vehicle control” value (protein TB427TMP.02.4300 HY[…], CONSERVED, vehicle control = 1) was 1.4, the fold change (protein TB427TMP.02.4550 HY[…], CONSERVED, vehicle control = 1) was 0.93 and the “fold change vs vehicle control” value (protein TB427TMP.02.5450 GLUCOSE-REGULATED PROTEIN 78, PUTATIVE, vehicle control = 1) was 0.97. The fold change (protein TB427TMP.02.5660 HY[…], CONSERVED, vehicle control = 1) was 0.82, the fold change (protein TB427TMP.03.0150 HY[…], CONSERVED, vehicle control = 1) was 0.91 and the fold change (protein TB427TMP.160.2370 HY[…], CONSERVED, vehicle control = 1) was 0.91. For the same compound, the “fold change vs vehicle control” value (protein TB427TMP.160.4620 INOSITOL-1(OR 4)-MONOPHOSPHATASE, PUTATIVE, vehicle control = 1) was 0.99, the “fold change vs vehicle control” value (protein TB427TMP.160.4630 HY[…], CONSERVED, vehicle control = 1) was 0.83 and the fold change (protein TB427TMP.160.4770 PROTEIN KINASE, PUTATIVE, vehicle control = 1) was 0.89. The fold change (protein TB427TMP.160.5670 HY[…], CONSERVED, vehicle control = 1) was 1.47, the fold change (protein TB427TMP.211.0740 P21 ANTIGEN PROTEIN, PUTATIVE, vehicle control = 1) was 0.79 and the fold change (protein TB427TMP.211.0930 POLYADENYLATE-BINDING PROTEIN 1 (POLY(A)-BINDING PROTEIN 1) (PABP 1), vehicle control = 1) was 0.89. The fold change (protein TB427TMP.211.2460 HY[…], CONSERVED, vehicle control = 1) was 0.96, the “fold change vs vehicle control” value (protein TB427TMP.211.2570 T-COMPLEX PROTEIN 1, ETA SUBUNIT, PUTATIVE, vehicle control = 1) was 0.8 and the “fold change vs vehicle control” value (protein TB427TMP.211.3140 HY[…], CONSERVED, vehicle control = 1) was 2.05. The “fold change vs vehicle control” value (protein TB427TMP.211.3510 ATP-DEPENDENT DEAD/H RNA HELICASE, PUTATIVE, vehicle control = 1) was 0.97, the “fold change vs vehicle control” value (protein TB427TMP.211.4170 HY[…], CONSERVED, vehicle control = 1) was 1.18 and the “fold change vs vehicle control” value (protein TB427TMP.22.0003 PHOSPH[…], PUTATIVE, vehicle control = 1) was 1.32. The fold change (protein TB427TMP.244.2840 HY[…], CONSERVED, vehicle control = 1) was 0.93, the fold change (protein TB427TMP.47.0011 HY[…], CONSERVED, vehicle control = 1) was 0.87 and the “fold change vs vehicle control” value (protein TB427TMP.55.0006 INTR[…] PROTEIN IFT88, vehicle control = 1) was 0.91. For the same compound, the “fold change vs vehicle control” value (protein TB427.01.120 RETRO[…] SPOT (RHS) PROTEIN, PUTATIVE, vehicle control = 1) was 0.9, the fold change (protein TB427.01.2570 COATOMER BETA SUBUNIT, vehicle control = 1) was 0.94 and the fold change (protein TB427.01.5030 LEUCINE-RICH REPEAT PROTEIN (LRRP), PUTATIVE, vehicle control = 1) was 0.98. For the same compound, the “fold change vs vehicle control” value (protein TB427.02.2970 MIT[…] PROTEIN, PUTATIVE, vehicle control = 1) was 1.23, the “fold change vs vehicle control” value (protein TB427.02.3880 HET[…] RIBONUC[…]/F, PUTATIVE, vehicle control = 1) was 1.22 and the “fold change vs vehicle control” value (protein TB427.03.1210 PROTEIN TRANSPORT PROTEIN SEC24, vehicle control = 1) was 1.18. For the same compound, the “fold change vs vehicle control” value (protein TB427.03.3160 POLY(A) POLYMERASE, vehicle control = 1) was 1.17, the “fold change vs vehicle control” value (protein TB427.03.3950 HY[…], CONSERVED, vehicle control = 1) was 0.95 and the “fold change vs vehicle control” value (protein TB427.03.4040 HY[…], CONSERVED (Ankyrinrepeat), vehicle control = 1) was 1.73. For the same compound, the “fold change vs vehicle control” value (protein TB427.04.1080 V-TYPE ATPASE, A SUBUNIT, PUTATIVE, vehicle control = 1) was 1.34, the fold change (protein TB427.04.1090 ENDOSOMAL INTEGRAL MEMBRANE PROTEIN, PUTATIVE, vehicle control = 1) was 1.3 and the fold change (protein TB427.04.1300 HY[…], CONSERVED, vehicle control = 1) was 0.92. The “fold change vs vehicle control” value (protein TB427.04.1660 MIT[…] PROTEIN, PUTATIVE, vehicle control = 1) was 0.89, the fold change (protein TB427.04.310 HY[…], CONSERVED, vehicle control = 1) was 0.56 and the fold change (protein TB427.04.3890 ATP-DEPENDENT RNA HELICASE, PUTATIVE, vehicle control = 1) was 0.88. The fold change (protein TB427.04.420 PHOSPHATIDYLINOSITOL 3-KINASE (TOR2), vehicle control = 1) was 0.71, the fold change (protein TB427.04.450 COATOMER ALPHA SUBUNIT, PUTATIVE, vehicle control = 1) was 0.89 and the fold change (protein TB427.04.5010 CALRETICULIN, PUTATIVE, vehicle control = 1) was 0.83. It also gave a fold change (protein TB427.04.5200 NUCLEOPORIN (NUP54/57), PUTATIVE, vehicle control = 1) of 0.99.
